# From PMC5974779, “Prediction of Drug-Induced Hepatotoxicity Using Long-Term Stable Primary Hepatic 3D Spheroid Cultures in Chemically Defined Conditions” (Toxicological Sciences, 2018)
# System: PHH 2D sandwich cultures
# Assay: not given
# Settings: 100× cmax, 24 h, high content imaging; ref Xu et al., 2008; cited from earlier work
row,SMILES,hepatotoxicity detection in 2D sandwich cultures of PHH
1,CN(C)CCCN1c2ccccc2CCc2ccccc21 [Imipramine],liver toxicity was not recognized
2,CC(CCc1ccccc1)NCC(O)c1ccc(O)c(C(N)=O)c1 (stereo not shown) [Labetalol],flagged as hepatotoxic

# Same assay, conditions: PHH 2D sandwich cultures, 100x Cmax; ref Xu 2008; cited from earlier work
row,SMILES,2Dsw (Xu 2008) 100x
1,CNCCc1ccccn1 [Betahistine],Negative
2,CN1C(C(=O)Nc2ccccn2)=C(O)c2ccccc2S1(=O)=O [Piroxicam],Negative
3,O=c1n(CCCN2CCN(c3cccc(Cl)c3)CC2)nc2ccccn12 [Trazodone],Positive
4,CNCCC=C1c2ccccc2CCc2ccccc21 [Nortriptyline],Negative
5,O=C1CC2(CCCC2)CC(=O)N1CCCCN1CCN(c2ncccn2)CC1 [Buspirone],Negative
6,CC(=O)[C@H]1CC[C@H]2[C@@H]3CCC4=CC(=O)CC[C@]4(C)[C@H]3CC[C@]12C [Progesterone],Negative
7,CN(C)CCCN1c2ccccc2CCc2ccccc21 [Imipramine],Negative
8,CC(CCc1ccccc1)NCC(O)c1ccc(O)c(C(N)=O)c1 (stereo not shown) [Labetalol],Positive

# Same assay, conditions: ref Xu et al., 2008; cited from earlier work
row,SMILES,reactive oxygen species levels in 2D sandwich cultures of PHH
1,CC(CCc1ccccc1)NCC(O)c1ccc(O)c(C(N)=O)c1 (stereo not shown) [Labetalol],only slight increases in reactive oxygen species levels

# System: primary human hepatocytes (PHH) 3D spheroids
# Assay: not given
# Settings: not given
SMILES,Chemically defined spheroids (this study) 20x,hepatotoxicity evaluation in CD-spheroids
CNCCc1ccccn1 [Betahistine],Negative,
CN1C(C(=O)Nc2ccccn2)=C(O)c2ccccc2S1(=O)=O [Piroxicam],Negative,
O=c1n(CCCN2CCN(c3cccc(Cl)c3)CC2)nc2ccccn12 [Trazodone],Positive,
CNCCC=C1c2ccccc2CCc2ccccc21 [Nortriptyline],Positive,
O=C1CC2(CCCC2)CC(=O)N1CCCCN1CCN(c2ncccn2)CC1 [Buspirone],Negative,not hepatotoxic
CC(=O)[C@H]1CC[C@H]2[C@@H]3CCC4=CC(=O)CC[C@]4(C)[C@H]3CC[C@]12C [Progesterone],Negative,
CC(CCc1ccccc1)NCC(O)c1ccc(O)c(C(N)=O)c1 (stereo not shown) [Labetalol],Negative,predicted to be DILI negative

# System: clinical DILI in man
# Assay: not given
# Settings: FDA drug labeling DILI concern; ref Chen et al., 2011; cited from earlier work
row,SMILES,FDA (Severity)
1,CNCCC=C1c2ccccc2CCc2ccccc21 [Nortriptyline],most DILI concern

# Same assay, conditions: FDA drug labeling DILI score; ref Chen et al., 2011; cited from earlier work
row,SMILES,FDA (0-8)
1,CNCCC=C1c2ccccc2CCc2ccccc21 [Nortriptyline],8

# Same assay, conditions: clinical DILI classification in man (POS/NEG); cited from earlier work
row,SMILES,DILI in vivo
1,CNCCc1ccccn1 [Betahistine],POS
2,CNCCC=C1c2ccccc2CCc2ccccc21 [Nortriptyline],POS

# Same assay, conditions: clinical DILI classification used in this study, Supplementary Table 2; ref Chen et al., 2011; Guo et al., 2005; O'Brien et al., 2006; Sakatis et al., 2012; Suzuki et al., 2010; Xu et al., 2008; cited from earlier work
row,SMILES,Classified as
1,CNCCc1ccccn1 [Betahistine],POS
2,CNCCC=C1c2ccccc2CCc2ccccc21 [Nortriptyline],POS

# Same assay, conditions: clinical DILI classification, Supplementary Table 1; ref Chen et al., 2011; Guo et al., 2005; O'Brien et al., 2006; Sakatis et al., 2012; Suzuki et al., 2010; Xu et al., 2008; cited from earlier work
row,SMILES,DILI in vivo
1,CNCCc1ccccn1 [Betahistine],POS
2,CNCCC=C1c2ccccc2CCc2ccccc21 [Nortriptyline],POS

# Same assay, conditions: clinical DILI classification; ref Xu et al. (2008); cited from earlier work
row,SMILES,Xu et al. (2008)
1,CNCCC=C1c2ccccc2CCc2ccccc21 [Nortriptyline],Positive

# Same assay, conditions: in vivo; cited from earlier work
SMILES,Classified as,Clinical DILI class (panel heading of Figure 4),DILI in vivo,FDA (0-8),FDA (Severity),Guo et al. (2005),O'Brien et al. (2003),Sakatis et al. (2012),Suzuki et al. (2010),Type of DILI
CN1C(C(=O)Nc2ccccn2)=C(O)c2ccccc2S1(=O)=O [Piroxicam],POS,High DILI concern,POS,3,less DILI concern,2,Severely,Hepatotoxic,1,"Hepatocellular injury, Cholestatic injury or Mixed hepatitis"
O=c1n(CCCN2CCN(c3cccc(Cl)c3)CC2)nc2ccccn12 [Trazodone],POS,High DILI concern,POS,5,less DILI concern,,,,,"Hepatocellular injury, Cholestatic injury or Mixed hepatitis"
CC(=O)[C@H]1CC[C@H]2[C@@H]3CCC4=CC(=O)CC[C@]4(C)[C@H]3CC[C@]12C [Progesterone],NEG,DILI negative,NEG,2,,,,non-hepatotixic,1,Non-hepatotoxic
CC(CCc1ccccc1)NCC(O)c1ccc(O)c(C(N)=O)c1 (stereo not shown) [Labetalol],POS,Severe DILI,POS,8,most DILI concern,,Severely,Hepatotoxic,3,Hepatocellular injury

# Same assay, conditions: in vivo; cited from earlier work
row,SMILES,Xu et al. (2008)
1,CN1C(C(=O)Nc2ccccn2)=C(O)c2ccccc2S1(=O)=O [Piroxicam],Positive
2,O=c1n(CCCN2CCN(c3cccc(Cl)c3)CC2)nc2ccccn12 [Trazodone],Positive
3,CC(=O)[C@H]1CC[C@H]2[C@@H]3CCC4=CC(=O)CC[C@]4(C)[C@H]3CC[C@]12C [Progesterone],Positive
4,CC(CCc1ccccc1)NCC(O)c1ccc(O)c(C(N)=O)c1 (stereo not shown) [Labetalol],Positive

# Same assay, conditions: reported pattern of liver damage, Supplementary Table 2; ref literature; cited from earlier work
row,SMILES,Type of DILI
1,CNCCC=C1c2ccccc2CCc2ccccc21 [Nortriptyline],Hepatocellular injury

# System: PHH spheroids (hanging-drop)
# Assay: not given
# Settings: PHH hanging-drop spheroids, 100x Cmax; ref Proctor 2017; cited from earlier work
row,SMILES,Hanging-drop spheroids (Proctor 2017) 100x
1,O=C1CC2(CCCC2)CC(=O)N1CCCCN1CCN(c2ncccn2)CC1 [Buspirone],Negative
2,CN(C)CCCN1c2ccccc2CCc2ccccc21 [Imipramine],Positive

# System: not given
# Assay: not given
# Settings: therapeutic total cmax; ref PMID; cited from earlier work
row,SMILES,Cmax [nM]
1,CNCCc1ccccn1 [Betahistine],3.7
2,CN1C(C(=O)Nc2ccccn2)=C(O)c2ccccc2S1(=O)=O [Piroxicam],5130
3,O=c1n(CCCN2CCN(c3cccc(Cl)c3)CC2)nc2ccccn12 [Trazodone],5100
4,CNCCC=C1c2ccccc2CCc2ccccc21 [Nortriptyline],1500
5,CC(=O)[C@H]1CC[C@H]2[C@@H]3CCC4=CC(=O)CC[C@]4(C)[C@H]3CC[C@]12C [Progesterone],193
6,CC(CCc1ccccc1)NCC(O)c1ccc(O)c(C(N)=O)c1 (stereo not shown) [Labetalol],2680

# System: not listed separately
# Assay: in vitro
# Settings: human
row,SMILES,"viability at 14 days, 20 × cmax [%]"
1,CC(CCc1ccccc1)NCC(O)c1ccc(O)c(C(N)=O)c1 (stereo not shown) [Labetalol],> 100

# System: PHH micropatterned cocultures with murine embryonic fibroblasts
# Assay: not given
# Settings: micropatterned cocultures, 100x Cmax; ref Khetani 2013; cited from earlier work
row,SMILES,MPCC (Khetani 2013) 100x
1,CNCCc1ccccn1 [Betahistine],Negative
2,CN1C(C(=O)Nc2ccccn2)=C(O)c2ccccc2S1(=O)=O [Piroxicam],Negative
3,O=c1n(CCCN2CCN(c3cccc(Cl)c3)CC2)nc2ccccn12 [Trazodone],Positive
4,CNCCC=C1c2ccccc2CCc2ccccc21 [Nortriptyline],Positive
5,O=C1CC2(CCCC2)CC(=O)N1CCCCN1CCN(c2ncccn2)CC1 [Buspirone],Negative
6,CC(=O)[C@H]1CC[C@H]2[C@@H]3CCC4=CC(=O)CC[C@]4(C)[C@H]3CC[C@]12C [Progesterone],Negative
7,CN(C)CCCN1c2ccccc2CCc2ccccc21 [Imipramine],Positive

# System: not given
# Assay: not given
# Settings: ref DrugBank and Prescribers' Digital Reference database; cited from earlier work
row,SMILES,Extent of hepatic metabolism
1,CNCCc1ccccn1 [Betahistine],Moderate
2,CN1C(C(=O)Nc2ccccn2)=C(O)c2ccccc2S1(=O)=O [Piroxicam],Extensive
3,O=c1n(CCCN2CCN(c3cccc(Cl)c3)CC2)nc2ccccn12 [Trazodone],Extensive
4,CNCCC=C1c2ccccc2CCc2ccccc21 [Nortriptyline],Extensive
5,CN(C)CCCN1c2ccccc2CCc2ccccc21 [Imipramine],Extensive
6,CC(CCc1ccccc1)NCC(O)c1ccc(O)c(C(N)=O)c1 (stereo not shown) [Labetalol],Extensive
